In patent publication US8211939B2, “Isosorbide nitrates” (Lacer, S.A., priority 2008, dated 2012):
Read-outs that look alike come from different tables or passages of the source.

What was measured:
[1] = test system: coronary angina caused by coronary obstruction (35% ferric chloride patch on left anterior descending coronary artery); experiment: Anti-anginal activity, ferric chloride-induced coronary angina (ECG S-wave); format: in vivo, Male Wistar rats; details: Rattus norvegicus, po, rat, vs untreated control, read-out: Antianginal activity (% inhibition of S-wave decrease); for inhibition in vivo at 90 µmol/kg: 90 μmol/kg p.o.
Method: Anti-Anginal Activity Assessment
Male Wistar rats weighing 250-300 g were used after an acclimatization period of five days, and animals were divided in groups of 8 for each treatment. In all experiments, rats were treated with 90 μmol/kg of each product by oral gavage using an administration volume of 10 ml/kg unless otherwise stated. The vehicle used to dissolve the products consisted of 1% Cremophor EL 27963, 1% Tween 80 and 0.5% Methocel E-15 in distilled water. […]
The procedure used to test the anti-anginal activity was that described by Hirata Y et al (Hirata Y, et al. Journal of Cardiovascular Pharmacology 1998, 31: 322-326).
After treatment, animals were anaesthetized with pentobarbital and electrodes were set for standard limb lead II electrocardiogram recording (Grass polygraph model 7, amplifier 7DA and pre-amplifier 7P1).
To induce coronary angina caused by coronary obstruction, a 35%-ferric chloride embedded mini patch was applied onto the left anterior descending coronary artery just below the left auricle. In all groups, after application of the patch, the ECG was recorded during 10 minutes. The shortening of the S-wave amplitude was measured on the recorded ECG. Data were collected with a Biopac system model MP100 connected to a Pentium PC. Results were expressed as % inhibition of S-wave decrease vs the untreated control.

[2] = test system: thrombus formation in the carotid artery (70% FeCl3 patch); experiment: Anti-thrombotic activity, FeCl3-induced carotid artery thrombosis; format: in vivo, Male Wistar rats; details: Rattus norvegicus, po, 90 μmol/kg p.o., % animals protected, read-out: Antithrombotic activity (% protection)
Method: Anti-Thrombotic Activity Assessment Experimental Procedure Male Wistar rats weighing 250-300 g were used after an acclimatization period of five days, and animals were divided in groups of 8 animals each for the treatments. […] The vehicle used to dissolve the products consisted of 1% Cremophor EL 27963, 1% Tween 80 and 0.5% Methocel E-15 in distilled water. After a fasting period of 8 hours with free access to drinking water each product was given by gavage 1 hour before induction of thrombosis. Thrombus formation was induced using a patch embedded with 70% FeCl3 solution applied onto the carotid artery using the same procedure described by Feuerstein G Z et al and later modified by Kurz et al (Feuerstein G Z, et al Artherioscler. Thromb. Vasc. Biol. 1999, 19: 2554-2562, Kurz K D, et al Thromb. Res. 1990, 60:269-280). Anti-thrombotic efficacy was evaluated at different times after dosage. Rats were anesthetized with sodium pentobarbital and then placed on a dorsal position over a thermal blanket laid on a surgical board and heated at 37° C. The left carotid artery was dissected and an electromagnetic blood flow probe was placed on the artery to measure blood flow. After application of the thrombotic stimuli, blood flow was monitored for the following 30 minutes. The vessel was considered occluded by the thrombus when flow reached 0.0 ml/min. Data were analysed by contingency tables using the Graph Pad Prism Program. P values were calculated using Fisher's exact test, values of p<0.05 were considered statistically significant. Results were expressed as % animals protected.

| Compound | inhibition in vivo at 90 µmol/kg ([1]; 1 h, 1 h) | inhibition in vivo at 90 µmol/kg ([1]; 2 h, 2 h) | inhibition in vivo at 90 µmol/kg ([1]; 4 h, 4 h) | responders at 90 µmol/kg ([2]; 1 h, 1 h after dosage) | responders at 90 µmol/kg ([2]; 4 h, 4 h after dosage) | responders at 90 µmol/kg ([2]; 2 h, 2 h after dosage) | inhibition in vivo at 450 µmol/kg ([1]; 1 h, 450 μmol/kg p.o., 1 h) | responders at 90 µmol/kg ([2]; 0.5 h, ½ h after dosage) |
| --- | --- | --- | --- | --- | --- | --- | --- | --- |
| CCS(=O)(=O)[C@@H]1CO[C@H]2[C@@H]1OC[C@H]2O[N+](=O)[O-] [Ej. 15, (3R,3aS,6R,6aS)-6-(ethylsulfonyl)hexahydrofuro[3,2-b]furan-3-yl nitrate] | 21% | 0% | 0% | 9% | 0% |  |  |  |
| CCCS(=O)(=O)[C@H]1CO[C@H]2[C@@H]1OC[C@H]2O[N+](=O)[O-] [Ej. 8, (3R,3aS,6S,6aS)-6-(propylsulfonyl)hexahydrofuro[3,2-b]furan-3-yl nitrate] | 77% |  | 25% | 100% | 0% | 50% |  |  |
| C[S@+]([O-])[C@H]1CO[C@H]2[C@@H]1OC[C@H]2O[N+](=O)[O-] [Comp 7, (3R,3aS,6S,6aS)-6-((S)-methylsulfinyl)hexahydrofuro[3,2-b]furan-3-yl nitrate, reference compound] |  |  |  | 0% | 0% | 0% | 73% | 0% |
| CCS[C@@H]1CO[C@H]2[C@@H]1OC[C@H]2O[N+](=O)[O-] [Ej. 11, (3R,3aS,6R,6aS)-6-(ethylthio)hexahydrofuro[3,2-b]furan-3-yl nitrate] | 41% |  |  | 66% | 0% |  |  |  |
| CCCS(=O)(=O)[C@@H]1CO[C@H]2[C@@H]1OC[C@H]2O[N+](=O)[O-] [Ej. 16, (3R,3aS,6R,6aS)-6-(propylsulfonyl)hexahydrofuro[3,2-b]furan-3-yl nitrate] | 32% |  | 30% | 40% | 20% |  |  |  |
| CCCS[C@@H]1CO[C@H]2[C@@H]1OC[C@H]2O[N+](=O)[O-] [Ej. 12, (3R,3aS,6R,6aS)-6-(propylthio)hexahydrofuro[3,2-b]furan-3-yl nitrate] | 14% | 0% | 0% | 32% | 16% |  |  |  |
